Experiments:
corn [1] = experiment: Soil treatment test for upland field; assay type: in vivo; design: key: 0 = normal development, 5 = all killed; settings: 500 g/ha, 3 weeks, glass house 25° C.
Procedure, shortened: (§1)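 Pre-emergence: seeds sown in alluvial Ube soil, wettable powder diluted in water with 0.05% surfactant sprayed on soil surface at 500 g/ha. Plants held in glasshouse at 25° C average for 3 weeks. Damage scored 0 (normal) to 5 (all killed) versus untreated.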

solgum [2] = experiment: Soil treatment test for upland field; assay type: in vivo; design: key: 0 = normal development, 5 = all killed; settings: 500 g/ha, 3 weeks, glass house 25° C.
Procedure, shortened: as §1

soybean [3] = experiment: Soil treatment test for upland field; assay type: in vivo; design: key: 0 = normal development, 5 = all killed; settings: 500 g/ha, 3 weeks, glass house 25° C.
Procedure, shortened: as §1

sugar beat [4] = experiment: Soil treatment test for upland field; assay type: in vivo; design: key: 0 = normal development, 5 = all killed; settings: 500 g/ha, 3 weeks, glass house 25° C.
Procedure, shortened: as §1

wheat [5] = experiment: Soil treatment test for upland field; assay type: in vivo; design: key: 0 = normal development, 5 = all killed; settings: 500 g/ha, 3 weeks, glass house 25° C.
Procedure, shortened: as §1

Large crabgrass [6] = experiment: Soil treatment test for upland field; assay type: in vivo, Digitaria adscendens; design: key: 0 = normal development, 5 = all killed; settings: 500 g/ha, 3 weeks, glass house 25° C.
Procedure, shortened: as §1

barnyard grass = experiment: Soil treatment test for upland field; assay type: in vivo, Eschinochloa crusgalli; design: key: 0 = normal development, 5 = all killed; settings: 500 g/ha, 3 weeks, glass house 25° C.
Procedure, shortened: as §1

green foxtail [7] = experiment: Soil treatment test for upland field; assay type: in vivo, Setaria viridis; design: key: 0 = normal development, 5 = all killed; settings: 500 g/ha, 3 weeks, glass house 25° C.
Procedure, shortened: as §1

blackgrass [8] = experiment: Soil treatment test for upland field; assay type: in vivo, Alopecurus aegualis; design: key: 0 = normal development, 5 = all killed; settings: 500 g/ha, 3 weeks, glass house 25° C.
Procedure, shortened: as §1

annual bluegrass [9] = experiment: Soil treatment test for upland field; assay type: in vivo, Poa annua; design: key: 0 = normal development, 5 = all killed; settings: 500 g/ha, 3 weeks, glass house 25° C.
Procedure, shortened: as §1

common lambsquarters [10] = experiment: Soil treatment test for upland field; assay type: in vivo, Chenopodium album; design: key: 0 = normal development, 5 = all killed; settings: 500 g/ha, 3 weeks, glass house 25° C.
Procedure, shortened: as §1

livid amaranth [11] = experiment: Soil treatment test for upland field; assay type: in vivo, Amaranthus lividus; design: key: 0 = normal development, 5 = all killed; settings: 500 g/ha, 3 weeks, glass house 25° C.
Procedure, shortened: as §1

velvetleaf [12] = experiment: Soil treatment test for upland field; assay type: in vivo, Abutilon theophrasti; design: key: 0 = normal development, 5 = all killed; settings: 500 g/ha, 3 weeks, glass house 25° C.
Procedure, shortened: as §1

morning glory [13] = experiment: Soil treatment test for upland field; assay type: in vivo, Ipomoea spps.; design: key: 0 = normal development, 5 = all killed; settings: 500 g/ha, 3 weeks, glass house 25° C.
Procedure, shortened: as §1

corn [14] = experiment: Foliar spread test for upland field; assay type: in vivo; design: key: 0 = normal development, 5 = all killed (6 ranks vs. untreated); settings: foliar spray, 500 ppm, 3 weeks, glass house 25° C.
Procedure, shortened: (§2)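 Seeds were sown in volcanic ash soil in Wagner pots and grown about 2 weeks in a glass house at an average 25° C. Wettable-powder formulations diluted to 500 ppm in water with 0.5% surfactant were sprayed uniformly over the plants. After 3 further weeks at 25° C, damage was scored 0 (normal) to 5 (all killed) against untreated plants.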

cotton = experiment: Foliar spread test for upland field; assay type: in vivo; design: key: 0 = normal development, 5 = all killed (6 ranks vs. untreated); settings: foliar spray, 500 ppm, 3 weeks, glass house 25° C.
Procedure, shortened: as §2

solgum [15] = experiment: Foliar spread test for upland field; assay type: in vivo; design: key: 0 = normal development, 5 = all killed (6 ranks vs. untreated); settings: foliar spray, 500 ppm, 3 weeks, glass house 25° C.
Procedure, shortened: as §2

soybean [16] = experiment: Foliar spread test for upland field; assay type: in vivo; design: key: 0 = normal development, 5 = all killed (6 ranks vs. untreated); settings: foliar spray, 500 ppm, 3 weeks, glass house 25° C.
Procedure, shortened: as §2

sugar beat [17] = experiment: Foliar spread test for upland field; assay type: in vivo; design: key: 0 = normal development, 5 = all killed (6 ranks vs. untreated); settings: foliar spray, 500 ppm, 3 weeks, glass house 25° C.
Procedure, shortened: as §2

wheat [18] = experiment: Foliar spread test for upland field; assay type: in vivo; design: key: 0 = normal development, 5 = all killed (6 ranks vs. untreated); settings: foliar spray, 500 ppm, 3 weeks, glass house 25° C.
Procedure, shortened: as §2

Large crabgrass [19] = experiment: Foliar spread test for upland field; assay type: in vivo, Digitaria adscendens; design: key: 0 = normal development, 5 = all killed (6 ranks vs. untreated); settings: foliar spray, 500 ppm, 3 weeks, glass house 25° C.
Procedure, shortened: as §2

barnyardgrjass = experiment: Foliar spread test for upland field; assay type: in vivo, Eschinochloa crusgalli; design: key: 0 = normal development, 5 = all killed (6 ranks vs. untreated); settings: foliar spray, 500 ppm, 3 weeks, glass house 25° C.
Procedure, shortened: as §2

green foxtail [20] = experiment: Foliar spread test for upland field; assay type: in vivo, Setaria viridis; design: key: 0 = normal development, 5 = all killed (6 ranks vs. untreated); settings: foliar spray, 500 ppm, 3 weeks, glass house 25° C.
Procedure, shortened: as §2

blackgrass [21] = experiment: Foliar spread test for upland field; assay type: in vivo, Alopecurus aegualis; design: key: 0 = normal development, 5 = all killed (6 ranks vs. untreated); settings: foliar spray, 500 ppm, 3 weeks, glass house 25° C.
Procedure, shortened: as §2

annual bluegrass [22] = experiment: Foliar spread test for upland field; assay type: in vivo, Poa annua; design: key: 0 = normal development, 5 = all killed (6 ranks vs. untreated); settings: foliar spray, 500 ppm, 3 weeks, glass house 25° C.
Procedure, shortened: as §2

common lambsquarters [23] = experiment: Foliar spread test for upland field; assay type: in vivo, Chenopodium album; design: key: 0 = normal development, 5 = all killed (6 ranks vs. untreated); settings: foliar spray, 500 ppm, 3 weeks, glass house 25° C.
Procedure, shortened: as §2

livid amaranth [24] = experiment: Foliar spread test for upland field; assay type: in vivo, Amaranthus lividus; design: key: 0 = normal development, 5 = all killed (6 ranks vs. untreated); settings: foliar spray, 500 ppm, 3 weeks, glass house 25° C.
Procedure, shortened: as §2

velvetleaf [25] = experiment: Foliar spread test for upland field; assay type: in vivo, Abutilon theophrasti; design: key: 0 = normal development, 5 = all killed (6 ranks vs. untreated); settings: foliar spray, 500 ppm, 3 weeks, glass house 25° C.
Procedure, shortened: as §2

morning glory [26] = experiment: Foliar spread test for upland field; assay type: in vivo, Ipomoea spps.; design: key: 0 = normal development, 5 = all killed (6 ranks vs. untreated); settings: foliar spray, 500 ppm, 3 weeks, glass house 25° C.
Procedure, shortened: as §2

Row | Structure (SMILES) | Effects Corn (corn [1]) | Effects Solgum (solgum [2]) | Effects Soybean (soybean [3]) | Effects Sugar beat (sugar beat [4]) | Effects Wheat (wheat [5]) | Effects Large crabgrass (Large crabgrass [6]) | Effects Barnyardgrass (barnyard grass) | Effects Green foxtail (green foxtail [7]) | Effects Blackgrass (blackgrass [8]) | Effects Annual bluegrass (annual bluegrass [9]) | Effects Common lambsquarters (common lambsquarters [10]) | Effects Livid amaranth (livid amaranth [11]) | Effects Velvetleaf (velvetleaf [12]) | Effects Morning glory (morning glory [13]) | Effects Corn (corn [14]) | Effects Sotton (cotton) | Effects Solgum (solgum [15]) | Effects Soybean (soybean [16]) | Effects Sugar beat (sugar beat [17]) | Effects Wheat (wheat [18]) | other results
1 | CCC(=Cc1cccc(C(F)(F)F)c1)c1nc2cc([N+](=O)[O-])ccc2o1 [I-c-72] | 2 | 3 | 5 | 5 | 2 | 5 | 5 | 5 | 5 | 5 | 5 | 5 | 5 | 4 | 3 | 4 | 3 | 5 | 4 | 2 | Effects Large crabgrass (Large crabgrass [19]): 4; Effects Barnyardgrass (barnyardgrjass): 3; Effects Green foxtail (green foxtail [20]): 4; Effects Blackgrass (blackgrass [21]): 3; Effects Annual bluegrass (annual bluegrass [22]): 4; Effects Common lambsquarters (common lambsquarters [23]): 5; Effects Livid amaranth (livid amaranth [24]): 5; Effects Velvetleaf (velvetleaf [25]): 3; Effects Morning glory (morning glory [26]): 5
2 | CCCC(=Cc1cccc(C(F)(F)F)c1)c1nc2cc(C(F)(F)F)ccc2o1 [I-c-88] | 3 | 4 | 5 | 5 | 2 | 5 | 5 | 5 | 5 | 5 | 5 | 5 | 5 | 5 | 4 | 5 | 3 | 5 | 5 | 2 | Effects Large crabgrass (Large crabgrass [19]): 4; Effects Barnyardgrass (barnyardgrjass): 2; Effects Green foxtail (green foxtail [20]): 5; Effects Blackgrass (blackgrass [21]): 5; Effects Annual bluegrass (annual bluegrass [22]): 4; Effects Common lambsquarters (common lambsquarters [23]): 5; Effects Livid amaranth (livid amaranth [24]): 5; Effects Velvetleaf (velvetleaf [25]): 4; Effects Morning glory (morning glory [26]): 5
3 | CCC(=Cc1cccc(C(F)(F)F)c1)c1nc2cc(Cl)c(C)cc2o1 [I-c-131] | 1 | 3 | 1 | 5 | 1 | 5 | 5 | 5 | 5 | 5 | 5 | 5 | 5 | 5 | 3 | 5 | 2 | 5 | 4 | 2 | Effects Large crabgrass (Large crabgrass [19]): 4; Effects Barnyardgrass (barnyardgrjass): 3; Effects Green foxtail (green foxtail [20]): 4; Effects Blackgrass (blackgrass [21]): 4; Effects Annual bluegrass (annual bluegrass [22]): 4; Effects Common lambsquarters (common lambsquarters [23]): 5; Effects Livid amaranth (livid amaranth [24]): 5; Effects Velvetleaf (velvetleaf [25]): 4; Effects Morning glory (morning glory [26]): 5
4 | CC(=Cc1cccc(C(F)(F)F)c1)c1nc2cc(C#N)c(F)cc2o1 [I-c-135] | 1 | 1 | 2 | 5 | 1 | 5 | 4 | 5 | 5 | 5 | 5 | 5 | 5 | 4 | 2 | 4 | 3 | 4 | 5 | 2 | Effects Large crabgrass (Large crabgrass [19]): 4; Effects Barnyardgrass (barnyardgrjass): 3; Effects Green foxtail (green foxtail [20]): 5; Effects Blackgrass (blackgrass [21]): 5; Effects Annual bluegrass (annual bluegrass [22]): 5; Effects Common lambsquarters (common lambsquarters [23]): 5; Effects Livid amaranth (livid amaranth [24]): 5; Effects Velvetleaf (velvetleaf [25]): 4; Effects Morning glory (morning glory [26]): 5
